Results reported in ChEMBL document CHEMBL1130534, “Potent antiinflammatory 3-thiazole-4(5)-acetic acids of 1,2-benzisothiazole” (1997).
Values joined by “and” are separate entries in the source; they are usually repeats but may differ in a detail not shown here. Identical values can stand only once.

Legend:
Format in all cases: functional
[1] = test system: Rattus norvegicus; assay: Compound (50 mg/kg) administered intraperitoneally was tested for antiinflammatory activity in carrageenan induced rat paw edema assay after 3.5 hours
[2] = test system: Rattus norvegicus; assay: Compound administered orally was tested for antiinflammatory activity in carrageenan-induced rat paw edema assay after 3.5 hours; set-up: concentration or dose not given beside the values
[3] = test system: Rattus norvegicus; assay: Compound (50 mg/kg) administered orally was tested for antiinflammatory activity in carrageenan-induced rat paw edema assay after 2 hours
[4] = test system: Rattus norvegicus; assay: Compound administered intraperitoneally was tested for antiinflammatory activity in carrageenan-induced rat paw edema assay after 2 hours; set-up: concentration or dose not given beside the values
[5] = test system: Rattus norvegicus; assay: Compound administered intraperitoneally was tested for antiinflammatory activity in carrageenan-induced rat paw edema assay after 3.5 hours; set-up: concentration or dose not given beside the values
[6] = test system: Rattus norvegicus; assay: Compound (50 mg/kg) administered intraperitoneally was tested for antiinflammatory activity in carrageenan induced rat paw edema assay after 2 hours
[7] = test system: Rattus norvegicus; assay: Compound administered orally was tested for antiinflammatory activity in carrageenan-induced rat paw edema assay after 2 hours; set-up: concentration or dose not given beside the values

Structure (SMILES)	Inhibition [1]	Inhibition [2]	Inhibition [3]	Inhibition [4]	Inhibition [5]	Inhibition [6]	Inhibition [7]
O=C(O)Cc1sc(-c2nsc3ccccc23)nc1-c1ccc(Cl)cc1	64%	62% and 61%	69%	78%	67%	76%	75%
CCOC(=O)Cc1sc(-c2nsc3ccccc23)nc1-c1ccc(OC)cc1		29%		34%	30%		20%
O=C(O)Cc1csc(-c2nsc3ccccc23)n1		46%		55%	64%		64%
O=C(O)Cc1sc(-c2nsc3ccccc23)nc1-c1ccccc1		19%		45%	7%		15%
CCOC(=O)Cc1sc(-c2nsc3ccccc23)nc1-c1ccccc1		11%		<10%	<10%		<10%
CCOC(=O)Cc1sc(-c2nsc3ccccc23)nc1-c1ccc(Cl)cc1		22%		24%	13%		34%
CCOC(=O)Cc1csc(-c2nsc3ccccc23)n1		11%					18%
COc1ccc(-c2nc(-c3nsc4ccccc34)sc2CC(=O)O)cc1		33%		40%	24%		36%
CC(C)Cc1ccc(C(C)C(=O)O)cc1 (configuration not stated) [IBUPROFEN]		65%		70%	74%		62%
